Experimental data reported in patent US20230159445A1, “STAT INHIBITORY COMPOUNDS AND COMPOSITIONS” (JANPIX LIMITED, priority 2020, published 2023).

What was measured:
[1] = test system: normal human fibroblast (NHF) cells; experiment: NHF Cell Cytotoxicity Assay (CellTiter-Blue, 72 h), off-target effects; assay type: cell-based; conditions: Homo sapiens, Fibroblast; pooled NHF cells
Outline: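 Normal human fibroblasts (1×10^4/well, 10% FBS medium) were treated after 24 h with inhibitor at 0.097656-50 μM for 72 h at 37° C. Viability was read by CellTiter-Blue fluorescence (560/590 nm), normalized to DMSO control, and IC50 obtained from a variable-slope log(inhibitor)-response fit of four replicates.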

MV4-11 cells = experiment: MV4-11 Cell Cytotoxicity Assay (CellTiter-Blue, 72 h); assay type: cell-based, human; conditions: Homo sapiens, MV4-11; MV-4-11 cells
Outline: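 Cells seeded 24 h before treatment, then exposed 72 h at 37° C, 5% CO2 to inhibitors in triplicate, top concentration 50 μM with 1:2 serial dilutions (0.5% DMSO vehicle). Viability read by CellTiter-Blue fluorescence at 560/590 nm after 1 h.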

glutathione (GSH) = experiment: Reactivity Profiling with Glutathione (GSH), half-life by HPLC; conditions: 5 mM glutathione (GSH) in IMDM with 10% FBS
Description: 3.5 μL of 5 mM stocking solution of the inhibitors in DMSO was added to 697.5 μL of Iscove's Modified Dulbecco's Medium (IMDM) supplemented with 10% FBS and antibiotic antimycotic solution, with 5 mM glutathione to afford a final concentration of 25 μM inhibitor with 0.5% DMSO. The solution was then immediately placed in the sample tray at 25° C. […] For each inhibitor, its peak is integrated at different time points and compared to the time zero injection in order to obtain a percentage remaining. Half-life is calculated according to a first order reaction kinetic taking into account those time points for which remaining percentage of inhibitor is above 40%, using the formula: t½=Ln(2)/k, where k is the slope of the linear plot of Ln[Inhibitor] vs time, according to the formula: Ln[A]=Ln[A]0−kt, where [A] is the value resulting from the integration at each time point, [A]0 the value at time zero, and t the time. For each inhibitor, both replicates are averaged and the resulting t½ reported.

CC(C)(C)c1cc(CN(C(=O)CN(Cc2ccc(F)cc2Cl)S(=O)(=O)c2c(F)c(F)c(F)c(F)c2F)c2ccc(C(=O)O)cc2OC2CC2)cc(C2CC2)c1 [Compound 1189, 4-(N-(3-(tert-butyl)-5-cyclopropylbenzyl)-2-(N-(2-chloro-4-fluorobenzyl)-(2,3,4,5,6-pentafluorophenyl)sulfon-amido)acetamido)-3-cyclopropoxybenzoic acid]
IC50 [1]: 10000 to 20000 nM
IC50 (MV4-11 cells): 0.01 to 316 nM
half-life at 25 μM (glutathione (GSH)): 9.23 to 1670 h

O=C(O)c1ccc(N(Cc2cc(C3CC3)cc(N3CCCC3)c2)C(=O)CN(Cc2c(F)cc(F)cc2F)S(=O)(=O)c2c(F)c(F)c(F)c(F)c2F)c(OC2CC2)c1 [Compound 1191, 3-cyclopropoxy-4-(N-(3-cyclopropyl-5-(pyrrolidin-1-yl)benzyl)-2-(N-(2,4,6-trifluorobenzyl)-(2,3,4,5,6-pentafluoro-phenyl)sulfonamido)acetamido)benzoic acid]
IC50 [1]: 1 to 10000 nM
IC50 (MV4-11 cells): 316 to 1000 nM
half-life at 25 μM (glutathione (GSH)): 9.23 to 1670 h

O=C(O)c1ccc(N(Cc2cc(C3CC3)cc(N3CCCC3)c2)C(=O)CN(Cc2ccc(F)cc2Cl)S(=O)(=O)c2c(F)c(F)c(F)c(F)c2F)c(OC2CC2)c1 [Compound 1192, 4-(2-(N-(2-chloro-4-fluorobenzyl)-(2,3,4,5,6-pentafluorophenyl)sulfon-amido)-N-(3-cyclopropyl-5-(pyrrolidin-1-yl)benzyl)acetamido)-3-cyclopropoxybenzoic acid]
IC50 [1]: 10000 to 20000 nM
IC50 (MV4-11 cells): 316 to 1000 nM
half-life at 25 μM (glutathione (GSH)): 9.23 to 1670 h

O=C(O)c1ccc(N(Cc2cc(C3CC3)cc(C3CC3)c2)C(=O)CN(Cc2cnccc2C(F)(F)F)S(=O)(=O)c2c(F)c(F)c(F)c(F)c2F)c(C2CC2)c1 [Compound 1194, 3-cyclopropyl-4-(N-(3,5-dicyclopropylbenzyl)-2-(N-((4-(trifluoromethyl)pyridin-3-yl)methyl)-(2,3,4,5,6-pentafluoro-phenyl)sulfonamido)acetamido)benzoic acid]
IC50 [1]: 1 to 10000 nM
IC50 (MV4-11 cells): 0.01 to 316 nM
half-life at 25 μM (glutathione (GSH)): 0.00167 to 2.37 h

O=C(O)c1ccc(N(Cc2cc(C3CC3)cc(C3CC3)c2)C(=O)CN(Cc2c(F)cc(F)cc2F)S(=O)(=O)c2c(F)c(F)c(F)c(F)c2F)c(C2CC2)c1 [Compound 1195, 3-cyclopropyl-4-(N-(3,5-dicyclopropylbenzyl)-2-(N-(2,4,6-trifluorobenzyl)-(2,3,4,5,6-pentafluoro-phenyl)sulfonamido)acetamido)benzoic acid]
IC50 [1]: 1 to 10000 nM
IC50 (MV4-11 cells): 0.01 to 316 nM
half-life at 25 μM (glutathione (GSH)): 2.37 to 4.12 h

O=C(O)c1ccc(N(Cc2cc(C3CC3)cc(C3CC3)c2)C(=O)CN(Cc2c(F)c(F)c(F)c(F)c2F)S(=O)(=O)c2c(F)c(F)c(F)c(F)c2F)c(C2CC2)c1 [Compound 1196, 3-cyclopropyl-4-(N-(3,5-dicyclopropylbenzyl)-2-(N-((perfluorophenyl)methyl)-(2,3,4,5,6-pentafluoro-phenyl)sulfonamido)acetamido)benzoic acid]
IC50 [1]: 1 to 10000 nM
IC50 (MV4-11 cells): 0.01 to 316 nM
half-life at 25 μM (glutathione (GSH)): 9.23 to 1670 h

O=C(O)c1ccc(N(Cc2cc(C3CC3)cc(C3CC3)c2)C(=O)CN(Cc2ccc(F)cc2Cl)S(=O)(=O)c2c(F)c(F)c(F)c(F)c2F)c(C2CC2)c1 [Compound 1197, 4-(2-(N-(2-chloro-4-fluorobenzyl)-(2,3,4,5,6-pentafluorophenyl)sulfon-amido)-N-(3,5-dicyclopropylbenzyl)acetamido)-3-cyclopropylbenzoic acid]
IC50 [1]: 10000 to 20000 nM
IC50 (MV4-11 cells): 0.01 to 316 nM
half-life at 25 μM (glutathione (GSH)): 4.12 to 9.23 h

O=C(O)c1ccc(N(Cc2cc(C3CC3)cc(N3CCCC3)c2)C(=O)CN(Cc2c(F)cc(F)cc2F)S(=O)(=O)c2c(F)c(F)c(F)c(F)c2F)c(C2CC2)c1 [Compound 1199, 3-cyclopropyl-4-(N-(3-cyclopropyl-5-(pyrrolidin-1-yl)benzyl)-2-(N-(2,4,6-trifluorobenzyl)-(2,3,4,5,6-pentafluoro-phenyl)sulfonamido)acetamido)benzoic acid]
IC50 [1]: 1 to 10000 nM
IC50 (MV4-11 cells): 0.01 to 316 nM
half-life at 25 μM (glutathione (GSH)): 9.23 to 1670 h

O=C(O)c1ccc(N(Cc2cc(C3CC3)cc(N3CCCC3)c2)C(=O)CN(Cc2ccc(F)cc2Cl)S(=O)(=O)c2c(F)c(F)c(F)c(F)c2F)c(C2CC2)c1 [Compound 1200, 4-(2-(N-(2-chloro-4-fluorobenzyl)-(2,3,4,5,6-pentafluorophenyl)sulfon-amido)-N-(3-cyclopropyl-5-(pyrrolidin-1-yl)benzyl)acetamido)-3-cyclopropylbenzoic acid]
IC50 [1]: 1 to 10000 nM
IC50 (MV4-11 cells): 0.01 to 316 nM
half-life at 25 μM (glutathione (GSH)): 9.23 to 1670 h

Cc1cc(C(=O)O)cc(C)c1N(Cc1cc(C2CC2)cc(C2CC2)c1)C(=O)CN(Cc1c(F)cc(F)cc1F)S(=O)(=O)c1c(F)c(F)c(F)c(F)c1F [Compound 1203, 4-(N-(3,5-dicyclopropylbenzyl)-2-(N-(2,4,6-trifluorobenzyl)-(2,3,4,5,6-pentafluoro-phenyl)sulfonamido)acetamido)-3,5-dimethylbenzoic acid]
IC50 [1]: 1 to 10000 nM
IC50 (MV4-11 cells): 0.01 to 316 nM
half-life at 25 μM (glutathione (GSH)): 4.12 to 9.23 h

O=C(O)c1ccc(N(Cc2cc(C3CC3)cc(C3CC3)c2)C(=O)CN(Cc2cnccc2C(F)(F)F)S(=O)(=O)c2c(F)c(F)c(F)c(F)c2F)c(OC2CCCC2)c1 [Compound 1207, 3-(cyclopentyloxy)-4-(N-(3,5-dicyclopropylbenzyl)-2-(N-((4-(trifluoromethyl)pyridin-3-yl)methyl)-(2,3,4,5,6-pentafluoro-phenyl)sulfonamido)acetamido)benzoic acid]
IC50 [1]: 10000 to 20000 nM
IC50 (MV4-11 cells): 0.01 to 316 nM
half-life at 25 μM (glutathione (GSH)): 4.12 to 9.23 h

O=C(O)c1ccc(N(Cc2cc(C3CC3)cc(C3CC3)c2)C(=O)CN(Cc2ccc(F)cc2Cl)S(=O)(=O)c2c(F)c(F)c(F)c(F)c2F)c(OC2CCCC2)c1 [Compound 1208, 4-(2-(N-(2-chloro-4-fluorobenzyl)-(2,3,4,5,6-pentafluorophenyl)sulfon-amido)-N-(3,5-dicyclopropylbenzyl)acetamido)-3-(cyclopentyloxy) benzoic acid]
IC50 [1]: 10000 to 20000 nM
IC50 (MV4-11 cells): 0.01 to 316 nM
half-life at 25 μM (glutathione (GSH)): 9.23 to 1670 h

O=C(O)c1ccc(N(Cc2cc(C3CC3)cc(N3CCCC3)c2)C(=O)CN(Cc2cnccc2C(F)(F)F)S(=O)(=O)c2c(F)c(F)c(F)c(F)c2F)c(OC2CCCC2)c1 [Compound 1209, 3-(cyclopentyloxy)-4-(N-(3-cyclopropyl-5-(pyrrolidin-1-yl)benzyl)-2-(N-((4-(trifluoromethyl)pyridin-3-yl)methyl)-(2,3,4,5,6-pentafluoro-phenyl)sulfonamido)acetamido)benzoic acid]
IC50 [1]: 10000 to 20000 nM
IC50 (MV4-11 cells): 0.01 to 316 nM
half-life at 25 μM (glutathione (GSH)): 9.23 to 1670 h

CN(C)c1cc(C(=O)O)ccc1N(Cc1cc(C2CC2)cc(C2CC2)c1)C(=O)CN(Cc1cnccc1C(F)(F)F)S(=O)(=O)c1c(F)c(F)c(F)c(F)c1F [Compound 1210, 4-(N-(3,5-dicyclopropylbenzyl)-2-(N-((4-(trifluoromethyl)pyridin-3-yl)methyl)-(2,3,4,5,6-pentafluoro-phenyl)sulfonamido)acetamido)-3-(dimethylamino) benzoic acid]
IC50 [1]: 1 to 10000 nM
IC50 (MV4-11 cells): 0.01 to 316 nM
half-life at 25 μM (glutathione (GSH)): 0.00167 to 2.37 h

CN(C)c1cc(C(=O)O)ccc1N(Cc1cc(C2CC2)cc(C2CC2)c1)C(=O)CN(Cc1ccc(F)cc1Cl)S(=O)(=O)c1c(F)c(F)c(F)c(F)c1F [Compound 1211, 4-(2-(N-(2-chloro-4-fluorobenzyl)-(2,3,4,5,6-pentafluorophenyl)sulfon-amido)-N-(3,5-dicyclopropylbenzyl)acetamido)-3-(dimethylamino) benzoic acid]
IC50 [1]: 10000 to 20000 nM
IC50 (MV4-11 cells): 316 to 1000 nM
half-life at 25 μM (glutathione (GSH)): 4.12 to 9.23 h

CC(C)Oc1cc(CN(C(=O)CN(Cc2ccccc2C(F)(F)F)S(=O)(=O)c2c(F)c(F)c(F)c(F)c2F)c2ccc(C(=O)O)cc2OC2CC2)cc(C2CC2)c1 [Compound 1213, 3-cyclopropoxy-4-(N-(3-cyclopropyl-5-isopropoxybenzyl)-2-(N-(2-(trifluoromethyl)benzyl)-(2,3,4,5,6-pentafluoro-phenyl)sulfonamido)acetamido)benzoic acid]
IC50 [1]: 10000 to 20000 nM
IC50 (MV4-11 cells): 0.01 to 316 nM
half-life at 25 μM (glutathione (GSH)): 2.37 to 4.12 h

O=C(O)c1ccc(N(Cc2cc(C3CC3)cc(C3CC3)c2)C(=O)CN(Cc2ncc(F)cc2Cl)S(=O)(=O)c2c(F)c(F)c(F)c(F)c2F)c(OC2CC2)c1 [Compound 1214, 4-(2-(N-((3-chloro-5-fluoropyridin-2-yl)methyl)-(2,3,4,5,6-pentafluorophenyl)sulfon-amido)-N-(3,5-dicyclopropylbenzyl)acetamido)-3-cyclopropoxybenzoic acid]
IC50 [1]: 1 to 10000 nM
IC50 (MV4-11 cells): 0.01 to 316 nM
half-life at 25 μM (glutathione (GSH)): 4.12 to 9.23 h

CN(C)c1cc(C(=O)O)ccc1N(Cc1cc(C2CC2)cc(C2CC2)c1)C(=O)CN(Cc1ccccc1C(F)(F)F)S(=O)(=O)c1c(F)c(F)c(F)c(F)c1F [Compound 1215, 4-(N-(3,5-dicyclopropylbenzyl)-2-(N-(2-(trifluoromethyl)benzyl)-(2,3,4,5,6-pentafluoro-phenyl)sulfonamido)acetamido)-3-(dimethylamino) benzoic acid]
IC50 [1]: 20000 to 30000 nM
IC50 (MV4-11 cells): 0.01 to 316 nM
half-life at 25 μM (glutathione (GSH)): 4.12 to 9.23 h

Cc1cc(C(=O)O)ccc1N(Cc1cc(C2CC2)cc(C2CC2)c1)C(=O)CN(Cc1cnccc1C(F)(F)F)S(=O)(=O)c1c(F)c(F)c(F)c(F)c1F [Compound 1216, 4-(N-(3,5-dicyclopropylbenzyl)-2-(N-((4-(trifluoromethyl)pyridin-3-yl)methyl)-(2,3,4,5,6-pentafluoro-phenyl)sulfonamido)acetamido)-3-methylbenzoic acid]
IC50 [1]: 1 to 10000 nM
IC50 (MV4-11 cells): 0.01 to 316 nM
half-life at 25 μM (glutathione (GSH)): 0.00167 to 2.37 h
